Assay results published in ChEMBL document CHEMBL2069250, “Indole-2-carboxamides as allosteric modulators of the cannabinoid CB₁ receptor” (J Med Chem, 2012).

What was measured:
Type in all cases: cell-based
Cannabinoid receptor 1 [1] = target: T1, Cannabinoid receptor 1 (Homo sapiens, UniProt P21554); assay: Allosteric modulation of human recombinant CB1 receptor expressed in HEK293 cells assessed as stimulation of [3H]CP55940 binding
Cannabinoid receptor 1 [2] = target: T1, Cannabinoid receptor 1; assay: Allosteric modulation of human recombinant CB1 receptor expressed in HEK293 cells assessed as stimulation of [3H]CP55940 binding at 10 uM
Cannabinoid receptor 2 [3] = target: T2, Cannabinoid receptor 2 (Homo sapiens, UniProt P34972); assay: Allosteric modulation of human recombinant CB2 receptor expressed in HEK293 cells assessed as inhibition of [3H]CP55940 binding at 10 uM
T2 sequence (P34972 whole entry): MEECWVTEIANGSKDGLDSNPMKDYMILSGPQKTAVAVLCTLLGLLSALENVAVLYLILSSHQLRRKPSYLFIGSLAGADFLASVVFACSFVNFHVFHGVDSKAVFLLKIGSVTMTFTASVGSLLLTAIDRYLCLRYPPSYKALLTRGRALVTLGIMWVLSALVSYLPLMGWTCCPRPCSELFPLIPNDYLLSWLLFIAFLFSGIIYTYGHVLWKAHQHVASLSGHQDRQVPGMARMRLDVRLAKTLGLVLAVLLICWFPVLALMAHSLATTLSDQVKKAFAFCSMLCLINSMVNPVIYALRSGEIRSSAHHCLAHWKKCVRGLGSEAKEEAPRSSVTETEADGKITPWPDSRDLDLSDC

Cannabinoid receptor 2 [4] = target: T2, Cannabinoid receptor 2; assay: Allosteric modulation of human recombinant CB2 receptor expressed in HEK293 cells assessed as inhibition of [3H]CP55940 binding
Cannabinoid receptor 1 [5] = target: T1, Cannabinoid receptor 1; assay: Allosteric modulation of human recombinant CB1 receptor expressed in HEK293 cells assessed as inhibition of [3H]CP55940 binding
Cannabinoid receptor 1 [6] = target: T1, Cannabinoid receptor 1; assay: Allosteric modulation of human recombinant CB1 receptor expressed in HEK293 cells assessed as inhibition of [3H]CP55940 binding at 25 uM
Cannabinoid receptor 1 [7] = target: T1, Cannabinoid receptor 1; assay: Allosteric modulation of human recombinant CB1 receptor expressed in HEK293 cells assessed as inhibitor of [3H]CP55940 binding at 10 uM
Cannabinoid receptor 2 [8] = target: T2, Cannabinoid receptor 2; assay: Allosteric modulation of human recombinant CB2 receptor expressed in HEK293 cells assessed as stimulation of [3H]CP55940 binding at 10 uM
Cannabinoid receptor 2 [9] = target: T2, Cannabinoid receptor 2; assay: Allosteric modulation of human recombinant CB2 receptor expressed in HEK293 cells assessed as stimulation of [3H]CP55940 binding

T1 sequence (P21554 whole entry): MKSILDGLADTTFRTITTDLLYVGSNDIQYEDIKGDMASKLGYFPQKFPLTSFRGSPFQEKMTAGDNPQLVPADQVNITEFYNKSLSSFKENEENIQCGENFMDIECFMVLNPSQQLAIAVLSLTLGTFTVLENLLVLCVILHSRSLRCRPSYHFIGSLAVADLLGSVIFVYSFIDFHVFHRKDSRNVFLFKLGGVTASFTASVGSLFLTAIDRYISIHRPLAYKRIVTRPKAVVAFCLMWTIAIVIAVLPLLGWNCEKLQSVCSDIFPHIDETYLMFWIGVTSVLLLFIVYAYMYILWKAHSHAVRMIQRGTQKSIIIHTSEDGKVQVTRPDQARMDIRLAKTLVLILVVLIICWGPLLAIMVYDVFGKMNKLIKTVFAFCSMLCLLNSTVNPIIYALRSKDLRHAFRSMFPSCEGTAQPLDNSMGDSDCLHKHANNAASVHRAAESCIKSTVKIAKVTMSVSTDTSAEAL

| SMILES | EC50 (Cannabinoid receptor 1 [1]) | Activity (Cannabinoid receptor 1 [2]) | inhibition (Cannabinoid receptor 2 [3]) | IC50 (Cannabinoid receptor 2 [4]) | IC50 (Cannabinoid receptor 1 [5]) | inhibition (Cannabinoid receptor 1 [6]) | inhibition (Cannabinoid receptor 1 [7]) | Activity (Cannabinoid receptor 2 [8]) | EC50 (Cannabinoid receptor 2 [9]) |
| --- | --- | --- | --- | --- | --- | --- | --- | --- | --- |
| O=C(NCCc1ccc(N2CCCCC2)cc1)c1cc2cc(Cl)ccc2[nH]1 | 0.09 µM | 207% | 37.9% | > 10 µM |  |  |  |  |  |
| CC(=O)c1c(C(=O)NCCc2ccc(N3CCCCC3)cc2)[nH]c2ccc(Cl)cc12 |  |  | 7.9% | > 10 µM | > 10 µM | 19.9% |  |  |  |
| CCc1c(C(=O)NCCc2ccc(C)cc2)[nH]c2ccc(Cl)cc12 | 0.55 µM | 189% | 29% | > 10 µM |  |  |  |  |  |
| CCc1c(C(=O)NCCc2ccc(N3CCN(C)CC3)cc2)[nH]c2ccc(Cl)cc12 | > 10 µM | 132% | 66.7% | 6.97 µM |  |  |  |  |  |
| CCc1c(C(=O)NCCc2ccc(N(C)C)cc2)[nH]c2ccc(Cl)cc12 | 0.05 µM | 227% | 22.8% | > 10 µM |  |  |  |  |  |
| CCc1c(C(=O)NCCc2ccc(F)cc2)[nH]c2ccc(Cl)cc12 | > 10 µM | 112% | 37.7% | > 10 µM |  |  |  |  |  |
| O=C(NCCc1ccc([N+](=O)[O-])cc1)c1cc2cc(Cl)ccc2[nH]1 | > 10 µM | 141% | 32.7% | > 10 µM |  |  |  |  |  |
| CNc1ccc(CCNC(=O)c2cc3cc(Cl)ccc3[nH]2)cc1 |  |  | 43.7% | > 10 µM | > 10 µM |  | 3.8% |  |  |
| CCc1c(C(=O)OCCc2ccc([N+](=O)[O-])cc2)[nH]c2ccc(Cl)cc12 |  |  | 16.8% | > 10 µM | > 10 µM |  | 24.7% |  |  |
| CCc1c(C(=O)NCCc2ccc(N3CCCCC3)cc2)[nH]c2ccc(Cl)cc12 | 0.14 µM | 244% | 20.6% | > 10 µM |  |  |  |  |  |
| CN(C)c1ccc(CCNC(=O)c2cc3cc(Cl)ccc3[nH]2)cc1 | 1.53 µM | 171% | 42.1% | > 10 µM |  |  |  |  |  |
| CCc1c(C(=O)OCCc2ccc(N(C)C)cc2)[nH]c2ccc(Cl)cc12 |  |  | 65.7% | 5.57 µM | > 10 µM |  | 19.6% |  |  |
| Cc1c(C(=O)NCCc2ccc(N3CCCCC3)cc2)[nH]c2ccc(Cl)cc12 | 0.23 µM | 243% |  |  |  |  |  | 111% | > 10 µM |
| Nc1ccc(CCNC(=O)c2cc3cc(Cl)ccc3[nH]2)cc1 |  |  | 37.7% | > 10 µM | > 10 µM |  | 3.6% |  |  |
| CCc1c(C(=O)NCCc2ccc([N+](=O)[O-])cc2)[nH]c2ccc(Cl)cc12 | 0.36 µM | 242% | 0% | > 10 µM |  |  |  |  |  |
| CCc1c(C(=O)NCCc2ccc(Cl)cc2)[nH]c2ccc(Cl)cc12 | 0.76 µM | 179% | 48.9% | > 10 µM |  |  |  |  |  |
| CCc1c(C(=O)NCCc2ccc(N3CCCC3)cc2)[nH]c2ccc(Cl)cc12 | > 10 µM | 134% |  |  |  |  |  | 135% | > 10 µM |
| CCc1c(C(=O)NCCc2ccc(N)cc2)[nH]c2ccc(Cl)cc12 | > 10 µM | 145% | 31.1% | > 10 µM |  |  |  |  |  |
| CCc1c(C(=O)NCCc2ccc(NC)cc2)[nH]c2ccc(Cl)cc12 | 0.96 µM | 183% | 55.7% | 9.13 µM |  |  |  |  |  |
| O=C(NCCc1ccc(Cl)cc1)c1cc2cc(Cl)ccc2[nH]1 | > 10 µM | 115% | 11.1% | > 10 µM |  |  |  |  |  |
| CC(O)c1c(C(=O)NCCc2ccc(N3CCCCC3)cc2)[nH]c2ccc(Cl)cc12 (racemic) | 8.45 µM | 180% | 33.1% | > 10 µM |  |  |  |  |  |
| CCc1c(C(=O)OCCc2ccc(N3CCCCC3)cc2)[nH]c2ccc(Cl)cc12 |  |  | 52.7% | 8.26 µM | > 10 µM |  | 18% |  |  |
| CCc1c(C(=O)NCCc2ccc(N3CCCCC3)cc2)[nH]c2ccccc12 | 0.81 µM | 244% | 55.2% | 8.97 µM |  |  |  |  |  |
